Consider 4 compounds from publication PMC3151735 (ACS chemical biology, 2011).

Test [1] concerns the target T1, Bcl-XL/Bak-BH3 (Homo sapiens, UniProt Q07817). The test is classed as binding.
The target of test [2] is T1, Bcl-XL/Bak-BH3. The following applies: proof-of-concept study; cited from earlier work.
[3] abbreviates: GST-Bcl-XL, fluorescein-labeled Bak-BH3 peptide.

SMILES strings stand for the structures.

T1 sequence (Q07817 whole entry): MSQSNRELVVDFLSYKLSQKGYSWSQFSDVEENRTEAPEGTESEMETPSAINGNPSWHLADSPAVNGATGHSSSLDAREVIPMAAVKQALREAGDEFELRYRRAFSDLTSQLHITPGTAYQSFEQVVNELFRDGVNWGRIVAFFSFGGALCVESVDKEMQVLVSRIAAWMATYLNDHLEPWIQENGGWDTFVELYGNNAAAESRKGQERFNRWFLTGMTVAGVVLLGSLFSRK

In general, IC50 refers to the midpoint of a concentration-inhibition curve. Read a low IC50 as greater potency in that assay. As usually defined, the Ki is the equilibrium dissociation constant of an inhibitor or competing ligand from its target. Read a high Ki as weaker binding. At Bcl-XL/Bak-BH3 [1] (setting [3]), `CC1(C)CCN(c2ccc(C(=O)NS(=O)(=O)c3ccc(NCCSc4ccccc4)c([N+](=O)[O-])c3)cc2)CC1` [SZ4TA2] registered an IC50 of 0.106 ± 0.012 µM and a Ki of 0.0375 ± 0.005 µM. The “Percentage Inhibition” value on Bcl-XL/Bak-BH3 [1] (acylsulfonamide at 50 μM concentration, Bcl-XL/Bak-BH3 PPI disruption) stood at 100%. Further, the IC50 inhibitory constants result at Bcl-XL/Bak-BH3 [2] is “nM range”.
For the compound `CC1(C)CCN(c2ccc(C(=O)NS(=O)(=O)c3ccc4ccc(S(=O)(=O)NCCSc5ccccc5)cc4c3)cc2)CC1` [SZ7TA2], the Ki at Bcl-XL/Bak-BH3 [1] (setting [3]) worked out at 11.5 ± 1.4 µM.
The same measure, in the same setting: the value for `[N-]=[N+]=NS(=O)(=O)c1ccc(CN(CCSc2ccccc2)Cc2ccc(S(=O)(=O)NC(=O)c3ccccc3)cc2)cc1` [SZ9TA1] was 11.6 ± 1.6 µM; that for `COc1cc(OC)cc(C(=O)NS(=O)(=O)c2ccc(CN(CCSc3ccccc3)Cc3ccc(S(=O)(=O)N=[N+]=[N-])cc3)cc2)c1` [SZ9TA5] was 14.6 ± 1 µM.
